In patent US20260184712A1, “Heterocyclic Compounds as ENT Inhibitors and Compounds for Use in the Treatment of Cancers” (iTeos Belgium SA, priority 2022, published 2026):

How the values were obtained:
[1] = test system: stimulated primary human T cells; assay: T cell proliferation assay, Condition B (X-VIVO15, 2% HSA and 0.1% AAG); format: cell-based; conditions: Homo sapiens, T-cell, 96 h; Condition B: X-VIVO15 medium containing HSA and α1-Acid Glycoprotein; anti-CD3/anti-CD28 beads, ATP, 4 days; CFSE-lo T cells
Procedure: (§1) The goal of this study was to determine the potency of ENT1 inhibitors by measuring the rescued proliferation of stimulated primary human T cells incubated in the presence of 100 uM Adenosine triphosphate (ATP), in baseline conditions (condition A) or in the presence of various proteins known to bind small molecules (condition B).
Condition B: X-VIVO15, 2% Human Serum Albumin (HSA) and 0.1% α-1-Acid Glycoprotein (AAG)
(§2) Venous blood from healthy volunteers, all of whom signed an informed consent approved by the Ethics Committee (FOR—UIC—BV-050-01-01 ICF_HBS_HD Version 5.0), was obtained by ImmuneHealth (Centre Hospitalier Universitaire Tivoli, La Louviere, Belgium). Mononuclear cells were collected by density gradient centrifugation, using SepMate-50 tubes (StemCell Technologies, Grenoble, France) and Lymphoprep (Stemcell Technologies) according to the manufacturer's instructions. CD3+ T cells were isolated by immunomagnetic negative selection, using the EasySep Human T Cell Isolation Kit (StemCell Technologies) as per the manufacturer's instructions. CD3+ T cells were stored in heat inactivated FBS (hiFBS; Gibco, ThermoFisher Scientific, Merelbeke, Belgium) and 10% DMSO in liquid nitrogen.
(§3) Purified human CD3+ T cells were thawed and washed once with RPMI1640 medium, UltraGlutamine (Lonza, Verviers, Belgium) containing 10% hiFBS. Cells were resuspended in PBS containing 10% hiFBS at 1×10^7 cells/ml. One volume of cells was combined with a matching volume of 2 μM CFSE solution in PBS, mixed well by pipetting, and incubated at room temperature for 5 minutes under rotation and protected from light. Excess CFSE was quenched by addition of PBS containing 10% hiFBS, and the cells were centrifuged (300×rcf, 7 minutes) and resuspended in X-VIVO15. Cells were again centrifuged and resuspended in X-VIVO15 for counting.
(§4) Cells were resuspended at 1.6×10^6 cells/mL in X-VIVO15 medium (Condition A) or X-VIVO15 medium containing 4% (v/v) HSA (Sigma-Aldrich, Diegem, Belgium) and 0.2% (v/v) ai-Acid Glycoprotein (Sigma-Aldrich, Diegem, Belgium) (Condition B).
(§5) […] of cell suspension (2×10^4 cells) was added to wells of sterile flat-bottom 384-well plates. Cells were activated by adding […] of anti-CD3 anti-CD28 coated microbeads (Dynabeads human T-activator CD3/CD28; Life Technologies, Paisley, UK) suspended in X-VIVO15 medium or X-VIVO15 medium containing 4% (v/v) HSA and 0.2% (v/v) ai-Acid Glycoprotein at a ratio of one microbead per two cells. Serial dilutions of the ENT1 inhibitors were conducted in X-VIVO15 medium and […] of the diluent was added to the wells. Cells were mixed by pipetting up and down and pre-incubated for 30 minutes in a 37° C. humidified tissue culture incubator with 5% CO2. After pre-incubation, cells were cultured in the presence or absence of ATP (Sigma-Aldrich) at a final concentration of […]. The final well volume was 50 μl in all cases. Experiments were performed in biological duplicates. Cells were mixed by pipetting up and down and incubated for 4 days in a 37° C. humidified tissue culture incubator with 5% CO2.
(§6) Samples were run on a BD LSR Fortessa FACS machine (BD FACSDiva Software v9.0.1). Data were analyzed using FlowJo (BD, v10.7.1). T cell proliferation was determined by measuring the frequency of ‘CFSE^lo’ (i.e. CFSE-diluted).
(§7) T cell proliferation data were analyzed using FlowJo software (Version 10.6.2). Dead cells and cellular debris were excluded on the basis of forward and side scatter profile and singlet cells were selected for further analysis.
(§8) T cell proliferation was determined based on the percent CFSE^lo total T cells for each condition. The data were plotted on the y-axis against log molar (M) concentration of ENT1 inhibitors on the x-axis in GraphPad Prism (version 9.0.0). IC50 and IC90 values were generated with the ‘log(agonist) vs. response—Find ECanything(F))’ function with F constrained to 50 or 90, respectively. pICF values were generated by taking the −logECF values.

human ENT1 = target: T1, human ENT1 (Homo sapiens, UniProt Q99808); assay: ENT1 binding assay (competition with Sahenta-DY647 on JAR cells); conditions: competition with SAHENTA-DY647 binding; IC50 categorized; read-out: Binding Assay IC50
T1 construct: JAR cells expressing ENT1 were purchased from ATCC; host or cells: JAR cells
T1 sequence (Q99808 1-456): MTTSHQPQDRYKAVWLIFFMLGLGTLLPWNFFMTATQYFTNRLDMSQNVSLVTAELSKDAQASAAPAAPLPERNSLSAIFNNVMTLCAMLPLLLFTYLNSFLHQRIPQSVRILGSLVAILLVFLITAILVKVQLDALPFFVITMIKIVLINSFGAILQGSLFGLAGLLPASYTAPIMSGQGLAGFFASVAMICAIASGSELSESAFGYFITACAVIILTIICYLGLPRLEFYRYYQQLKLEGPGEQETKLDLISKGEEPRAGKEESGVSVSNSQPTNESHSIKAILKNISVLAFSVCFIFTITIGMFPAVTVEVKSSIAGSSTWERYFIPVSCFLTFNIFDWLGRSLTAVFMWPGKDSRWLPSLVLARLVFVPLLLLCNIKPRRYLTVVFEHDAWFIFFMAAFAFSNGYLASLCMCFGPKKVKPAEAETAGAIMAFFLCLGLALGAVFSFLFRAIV
Procedure, shortened: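 Fluorescent-tracer displacement: compound incubated with JAR cells 30 min, 4 °C, before Sahenta-DY647 (100 nM) for another 30 min, 4 °C, in Hepes-buffered HBSS with 0.1% BSA. Bound tracer read at 670 nm after washes; IC50 from four-parameter fit, reported as mean of pIC50 values.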

[2] = test system: stimulated primary human T cells; assay: T cell proliferation assay, Condition A (X-VIVO15); format: cell-based; conditions: Homo sapiens, T-cell, 96 h; Condition A: X-VIVO15 medium; anti-CD3/anti-CD28 beads, ATP, 4 days; CFSE-lo T cells
Procedure: as §1, §2, §3, §4, §5, §6, §7, §8

| Compound | IC50 [1] [nM] | IC50 (human ENT1) [nM] | IC50 [2] [nM] |
| --- | --- | --- | --- |
| C[C@H]1O[C@@H](n2c(OCc3ccccc3)nc3c(OCc4ccc([N+](=O)[O-])cc4)ncnc32)[C@H](O)[C@@H]1O [Compound 2] | 20 to 500 | 1 to 20 | < 1 |
| C[C@H]1O[C@@H](n2c(NC3CCCC3)nc3c(OCc4ccccc4)ncnc32)[C@H](O)[C@@H]1O [Compound 5] | 20 to 500 | 1 to 20 | 1 to 20 |
| COCCCNc1nc2c(OCc3ccc(OC(F)F)cc3)ncnc2n1[C@@H]1O[C@H](C)[C@@H](O)[C@H]1O [Compound 46] | 20 to 500 | 1 to 20 | – |
| C[C@H]1O[C@@H](n2c(Nc3cnn(C)c3)nc3c(OCc4ccc(OC(F)F)cc4)ncnc32)[C@H](O)[C@@H]1O [Compound 64] | 20 to 500 | 1 to 20 | – |
| C[C@H]1O[C@@H](n2c(NCc3cnn(C)c3)nc3c(OCc4ccc(OC(F)F)cc4)ncnc32)[C@H](O)[C@@H]1O [Compound 66] | 20 to 500 | 1 to 20 | – |
| Cc1nc(CNc2nc3c(OCc4ccc(C#N)cc4)ncnc3n2[C@@H]2O[C@H](C)[C@@H](O)[C@H]2O)no1 [Compound 68] | 20 to 500 | 1 to 20 | – |
| C[C@H]1O[C@@H](n2c(NCc3ccc(C#N)nc3)nc3c(OCc4ccc(C#N)cc4)ncnc32)[C@H](O)[C@@H]1O [Compound 70] | 20 to 500 | 1 to 20 | – |
| C[C@H]1O[C@@H](n2c(NC3CCCC3)nc3c(OCc4ccc(C#N)nc4)ncnc32)[C@H](O)[C@@H]1O [Compound 74] | 20 to 500 | 1 to 20 | – |
| C[C@H]1O[C@@H](n2c(NC3CCOCC3)nc3c(OCc4ccc(C#N)nc4)ncnc32)[C@H](O)[C@@H]1O [Compound 76] | 20 to 500 | 1 to 20 | – |
| C[C@H]1O[C@@H](n2c(N[C@H]3CCOC3)nc3c(OCc4ccc(C#N)cc4)ncnc32)[C@H](O)[C@@H]1O [Compound 78] | 20 to 500 | 1 to 20 | – |
| CC(=O)N1CCC(Nc2nc3c(OCc4ccc(C#N)cc4)ncnc3n2[C@@H]2O[C@H](C)[C@@H](O)[C@H]2O)CC1 [Compound 80] | 1 to 20 | < 1 | – |
| C[C@H]1O[C@@H](n2c(NC3CCCC3)nc3c(OCc4ccc(OC(F)(F)F)nc4)ncnc32)[C@H](O)[C@@H]1O [Compound 87] | 20 to 500 | 1 to 20 | – |
| C[C@H]1O[C@@H](n2c(NC3CCC(O)C3)nc3c(OCc4ccc(C(F)(F)F)cc4)ncnc32)[C@H](O)[C@@H]1O (some centres unmarked) [Compound 100] | 20 to 500 | 1 to 20 | – |
| Cc1cc(COc2ncnc3c2nc(NC2CCOCC2)n3[C@@H]2O[C@H](C)[C@@H](O)[C@H]2O)ccc1[N+](=O)[O-] [Compound 103] | 20 to 500 | < 1 | – |
| C[C@H]1O[C@@H](n2c(NCC3CCC(F)(F)C3)nc3c(OCc4ccc(OC(F)F)nc4)ncnc32)[C@H](O)[C@@H]1O (some centres unmarked) [Compound 115] | > 500 | 1 to 20 | – |
| C[C@H]1O[C@@H](n2c(NCC3CCC(F)(F)CC3)nc3c(OCc4ccc(OC(F)F)nc4)ncnc32)[C@H](O)[C@@H]1O [Compound 116] | 20 to 500 | 1 to 20 | – |
| C[C@H]1O[C@@H](n2c(N[C@H]3CC[C@](C)(O)CC3)nc3c(OCc4ccc(OC(F)F)cc4)ncnc32)[C@H](O)[C@@H]1O [Compound 121] | 20 to 500 | 1 to 20 | – |

| Compound | IC50 [1] [nM] | IC50 (human ENT1) [nM] | IC50 [2] [nM] |
| --- | --- | --- | --- |
| C[C@H]1O[C@@H](n2cnc3c(C(=O)N(C)Cc4ccc([N+](=O)[O-])cc4)ncnc32)[C@H](O)[C@@H]1O [Compound 406] | – | > 500 | – |
| C[C@H]1O[C@@H](n2cnc3c(NS(=O)(=O)Cc4ccc([N+](=O)[O-])cc4)ncnc32)[C@H](O)[C@@H]1O [Compound 407] | – | > 500 | – |
| C[C@H]1O[C@@H](n2cnc3c(OCCc4ccc([S+](C)[O-])cc4)ncnc32)[C@H](O)[C@@H]1O (some centres unmarked) [Compound 408] | – | > 500 | – |
| C[C@H]1O[C@@H](n2cnc3c(SCc4ccc(C(=O)O)cc4)ncnc32)[C@H](O)[C@@H]1O [Compound 409] | – | > 500 | – |
| C[C@H]1O[C@@H](n2cnc3c(SCc4ccc(C(=N)N)cc4)ncnc32)[C@H](O)[C@@H]1O [Compound 410] | – | > 500 | – |
| C[C@H]1O[C@@H](n2cnc3c(OCc4ccc([N+](=O)[O-])cc4)nccc32)[C@H](O)[C@@H]1O [Compound 411] | – | > 500 | – |
| C[C@H]1O[C@@H](n2cnc3c(NC(=O)c4ccc([N+](=O)[O-])cc4)ncnc32)[C@H](O)[C@@H]1O [Compound 412] | – | > 500 | – |
| C[C@H]1O[C@@H](n2cnc3c(=O)n(Cc4ccc([N+](=O)[O-])cc4)ccc32)[C@H](O)[C@@H]1O [Compound 415] | – | > 500 | – |
| C[C@H]1O[C@@H](n2cnc3c(-n4cc(-c5ccc([N+](=O)[O-])cc5)nn4)ncnc32)[C@H](O)[C@@H]1O [Compound 416] | – | > 500 | – |
| C[C@H]1O[C@@H](n2cnc3c(C(=O)NCc4ccccc4)ncnc32)[C@H](O)[C@@H]1O [Compound 417] | – | > 500 | – |
| C[C@H]1O[C@@H](n2cnc3c(C(=O)N4CCC(c5ccc([N+](=O)[O-])cc5)CC4)ncnc32)[C@H](O)[C@@H]1O [Compound 418] | – | > 500 | – |
| C[C@H]1O[C@@H](n2cnc3c(C(=O)N4CCC(c5ccc([N+](=O)[O-])cc5)C4)ncnc32)[C@H](O)[C@@H]1O (some centres unmarked) [Compound 419] | – | > 500 | – |
| C[C@H]1O[C@@H](n2cnc3c(-c4nc(-c5ccc([N+](=O)[O-])cc5)no4)ncnc32)[C@H](O)[C@@H]1O [Compound 420] | – | > 500 | – |
| C[C@H]1O[C@@H](n2cnc3c(-c4noc(-c5ccc([N+](=O)[O-])cc5)n4)ncnc32)[C@H](O)[C@@H]1O [Compound 421] | – | > 500 | – |
| C[C@H]1O[C@@H](n2cnc3c(C(=O)N4CCC4c4ccccc4)ncnc32)[C@H](O)[C@@H]1O (some centres unmarked) [Compound 422] | – | > 500 | – |
| C[C@H]1O[C@@H](n2c(NCC3COC3)nc3c(OCc4ccc(Cl)cc4)ncnc32)[C@H](O)[C@@H]1O [Compound 423] | – | > 500 | – |
| C[C@H]1O[C@@H](n2c(NCC3COC3)nc3c(OCc4ccc(OC(F)F)cc4)ncnc32)[C@H](O)[C@@H]1O [Compound 424] | – | > 500 | – |
